Measured values taken from patent US11369591B2, “Drug delivery from hydrogels” (Incept, LLC, priority 2015, dated 2022).
Converted amounts (≈) assume the structure as drawn. Counter-ions that a name gives are not always drawn.

Experiments:
[1] = system: vitreous of a Male New Zealand white rabbit; experiment: Intravitreal injection of micronized axitinib suspension, histology after 1 month; type: in vivo; conditions: for Inflammation around the injected material / Inflammation within the vitreous Chamber: semi-quantitative scale 0-5
Procedure: (§1) 50 μL of the 2% axitinib suspension was then drawn into a 100 μL luer lock Hamilton syringe using a 21G 1.5″ needle. The needle was swapped for a fresh 27G ½″ TW needle (Nipro). The 50 μL suspension was then injected at the 6 o'clock position within the vitreous of a Male New Zealand white rabbit. After 1 month, eyes were explanted and prepared for histology.
(§2) Two eyes were fixed (Davidson's), blocked, sectioned, mounted and stained for microscopical examination by a board certified veterinary pathologist. Eyes were sectioned according to the following scheme: A suture had been placed at the 12 o'clock position for orientation at harvest. Typically eyes were trimmed in half in the plane from 12 o'clock to 6 o'clock through the lens and optic nerve along the midline. This captures as many optic structures in one plane as is possible. The trimmed eyes were examined grossly and abnormalities noted. Each half of the globe trimmed was embedded in its own cassette. Cassette A is always the nasal half of the eye, and cassette B is always the temporal half of the eye. For each block 6 hematoxylin and eosin (H&E)-stained slides were prepared that were separated by 1000 microns (1 mm). Each slide contained 2 serial sections of eye on it. All slides were evaluated by a board-certified veterinary pathologist at Charter Preclinical Services. Tissues were scored on a semi-quantitative scale from 0-5 for any abnormalities.
Eyes were scored in several categories for signs of inflammation or other adverse findings. Inflammation scores were as follows:
1—Rare foci of change; minimal
2—Mild diffuse change or more pronounced focal change
3—Moderate diffuse change
5 μL of the 4% Axitinib suspension was then drawn into a 100 μL luer lock Hamilton syringe using a 21G 1.5″ needle. The needle was swapped for a fresh 27G ½″ TW needle (Nipro). The 50 μL suspension was then injected at the 6 o'clock position within the vitreous of a Male New Zealand white rabbit. After 1 month, eyes were explanted and prepared for histology.
as §2, with “(Davidson's fixative solution),” for “(Davidson's),”
Eyes were scored in several categories for signs of inflammation or other adverse findings as described above.
as §1, with “the 8%” for “the 2%”, “TW Nipro needle.” for “TW needle (Nipro).”, “of both eyes in” for “of a”

[2] = experimental water solubility when available in the scientific literature; cited from earlier work
[3] = Steroid solubility studies in dissolution media (PBS, pH 6.3), Example 10; type: physicochemical; conditions: for solubility at 68 h: pH 6.3, aqueous buffer, thermodynamic from solid
Procedure: Solubility of the steroid candidates was assessed in dissolution media (PBS, pH 6.3) at ambient temperatures for 68 hours. UV detection of soluble steroid was determined relative to a standard curve.

[4] = statement in words; cited from earlier work

Row | Molecule | Experimental Solubility [2] | also measured
1 | CNC(=O)c1ccccc1Sc1ccc2c(/C=C/c3ccccn3)n[nH]c2c1 [Axitinib] | 1 µg/mL | Other adverse findings (retina, sclera, lens, etc.) ([1]; 100 μg): none; Inflammation around the injected material ([1]; 100 μg): 0.04±0.29; Inflammation within the vitreous Chamber ([1]; 100 μg): 0.0±0.0; Other adverse findings (retina, sclera, lens, etc.) ([1]; 200 μg): none; Inflammation around the injected material ([1]; 200 μg): 0.08±0.37; Inflammation within the vitreous Chamber ([1]; 200 μg): 0.14±0.35; Other adverse findings (retina, sclera, lens, etc.) ([1]; 400 ug, both eyes): none; Inflammation around the injected material ([1]; 400 ug, both eyes): 0.14±0.35; Inflammation within the vitreous Chamber ([1]; 400 ug, both eyes): 0.14±0.35
2 | CN1CCCC(n2nc(Cc3ccc(Cl)cc3)c3ccccc3c2=O)CC1 (centres unmarked) [Azelastine Base] | 50 µg/mL | –
3 | CN1CCCC(n2nc(Cc3ccc(Cl)cc3)c3ccccc3c2=O)CC1.O=C(O)c1cc2ccccc2c(Cc2c(O)c(C(=O)O)cc3ccccc23)c1O [Azelastine Embonate] | 15 µg/mL | –
4 | CC[C@H]1OC(=O)[C@H](C)[C@@H](O[C@H]2C[C@@](C)(OC)[C@@H](O)[C@H](C)O2)[C@H](C)[C@@H](O[C@@H]2O[C@H](C)C[C@H](N(C)C)[C@H]2O)[C@](C)(O)C[C@@H](C)CN(C)[C@H](C)[C@@H](O)[C@]1(C)O [Azithromycin] | 69 µg/mL | –
5 | N[C@@H]1CCCCN(c2c(F)cc3c(=O)c(C(=O)O)cn(C4CC4)c3c2Cl)C1 [Besifloxacin Base] | 90 µg/mL | –
6 | C[C@H]1C[C@H]2[C@@H]3CCC4=CC(=O)C=C[C@]4(C)[C@@]3(F)[C@@H](O)C[C@]2(C)[C@@]1(O)C(=O)COP(=O)([O-])[O-].[Na+].[Na+] [Betamethasone Sodium Phosphate] | 67 µg/mL | Max Solubility in PBS, pH 6.3 ([3]; PBS pH 6.3, ambient temperatures, 68 hours, UV detection): > 100,000 μg/mL; Solubility in water, descriptive ([3]; printed beside the Example 10 value): freely soluble
7 | Nc1c(CC(=O)O)cccc1C(=O)c1ccc(Br)cc1 [Bromfenac] | 53,000 μg/mL | –
8 | CCCC1O[C@@H]2C[C@H]3[C@@H]4CCC5=CC(=O)C=C[C@]5(C)[C@H]4[C@@H](O)C[C@]3(C)[C@]2(C(=O)CO)O1 (some centres unmarked) [Budesonide] | 24 µg/mL | solubility at 68 h [3]: 30 µg/mL (≈ 69.7 µM)
9 | C[C@@H]1C[C@H]2[C@@H]3CCC4=CC(=O)C=C[C@]4(C)[C@@]3(F)[C@@H](O)C[C@]2(C)[C@@]1(O)C(=O)CO [Dexamethasone alcohol] | 89 µg/mL | –
10 | O=C(O)Cc1ccccc1Nc1c(Cl)cccc1Cl [Diclofenac] | 600 µg/mL | –
11 | CO[C@H]1C[C@@H]2CC[C@@H](C)[C@@](O)(O2)C(=O)C(=O)N2CCCC[C@H]2C(=O)O[C@H]([C@H](C)C[C@@H]2CC[C@@H](OCCO)[C@H](OC)C2)CC(=O)[C@H](C)/C=C(\C)[C@@H](O)[C@@H](OC)C(=O)[C@H](C)C[C@H](C)/C=C/C=C/C=C/1C [Everolimus] | 10 µg/mL | –
12 | CC1(C)O[C@@H]2C[C@H]3[C@@H]4C[C@H](F)C5=CC(=O)C=C[C@]5(C)[C@H]4[C@@H](O)C[C@]3(C)[C@]2(C(=O)CO)O1 [Flunisolide, Anhydrous, USP, Flunisolide] | – | solubility at 68 h [3]: 90 µg/mL (≈ 207 µM)
13 | CC(C(=O)O)c1ccc(-c2ccccc2)c(F)c1 (centres unmarked) [Flurbiprofen Sodium] | 61 µg/mL | –
14 | CCC(=O)O[C@]1(C(=O)SCF)[C@H](C)C[C@H]2[C@@H]3C[C@H](F)C4=CC(=O)C=C[C@]4(C)[C@@]3(F)[C@@H](O)C[C@@]21C [Fluticasone Propionate] | 1 µg/mL | –
15 | COc1c(N2CCNC(C)C2)c(F)cc2c(=O)c(C(=O)O)cn(C3CC3)c12 (centres unmarked) [Gatifloxacin] | 60,000 μg/mL | –
16 | CN1CCC(=C2c3ccccc3CC(=O)c3sccc32)CC1 [Ketotifen base] | 15 µg/mL | –
17 | CN1CCC(=C2c3ccccc3CC(=O)c3sccc32)CC1 [Ketotifen fumarate] | 10,000 μg/mL | –
18 | CC(C)OC(=O)CCC/C=C\C[C@@H]1[C@@H](CC[C@@H](O)CCc2ccccc2)[C@H](O)C[C@@H]1O [Latanoprost] | – | solubility in aqueous solutions [4]: relatively low solubility
19 | CCOC(=O)O[C@]1(C(=O)OCCl)CC[C@H]2[C@@H]3CCC4=CC(=O)C=C[C@]4(C)[C@H]3[C@@H](O)C[C@@]21C [Loteprednol etabonate] | 5 µg/mL | –
20 | C[C@@H]1C[C@H]2[C@@H]3CCC4=CC(=O)C=C[C@]4(C)[C@@]3(Cl)[C@@H](O)C[C@]2(C)[C@@]1(OC(=O)c1ccco1)C(=O)CCl [Mometasone furoate] | 20 µg/mL | –
21 | CO[C@H]1C[C@@H]2CC[C@@H](C)[C@@](O)(O2)C(=O)C(=O)N2CCCC[C@H]2C(=O)O[C@H]([C@H](C)C[C@@H]2CC[C@@H](O)[C@H](OC)C2)CC(=O)[C@H](C)/C=C(\C)[C@@H](O)[C@@H](OC)C(=O)[C@H](C)C[C@H](C)/C=C/C=C/C=C/1C [Sirolimus] | <100 µg/mL | –
22 | CCN(CC)CCNC(=O)c1c(C)[nH]c(/C=C2\C(=O)Nc3ccc(F)cc32)c1C [Sunitinib Malate] | 25,000 μg/mL | –
23 | C=CC[C@@H]1/C=C(\C)C[C@H](C)C[C@H](OC)[C@H]2O[C@@](O)(C(=O)C(=O)N3CCCC[C@H]3C(=O)O[C@H](/C(C)=C/[C@@H]3CC[C@@H](O)[C@H](OC)C3)[C@H](C)[C@@H](O)CC1=O)[C@H](C)C[C@@H]2OC [Tacrolimus] | 8 µg/mL | –
24 | CC(C)(C)NC[C@H](O)COc1nsnc1N1CCOCC1 [Timolol Maleate] | 2,800 μg/mL | –
25 | CC(C)OC(=O)CCC/C=C\C[C@@H]1[C@@H](/C=C/[C@@H](O)COc2cccc(C(F)(F)F)c2)[C@H](O)C[C@@H]1O [Travoprost] | 44 µg/mL | –
26 | CC1(C)O[C@@H]2C[C@H]3[C@@H]4CCC5=CC(=O)C=C[C@]5(C)[C@@]4(F)[C@@H](O)C[C@]3(C)[C@]2(C(=O)CO)O1 [Triamcinolone Acetonide] | – | solubility at 68 h [3]: 20 µg/mL (≈ 46 µM)
27 | O=c1[nH]c(=O)n([C@H]2C[C@H](O)[C@@H](CO)O2)cc1C(F)(F)F [Trifluridine] | 1,500 μg/mL | –
28 | COc1cc2c(Nc3ccc(Br)cc3F)ncnc2cc1OCC1CCN(C)CC1 [Vandetanib (ZD6474), Vandetanib] | 8 µg/mL | –
29 | Aflibercept | >100,000 μg/mL | –
